Drawing on patent publication US20130344026A1, “Dimeric Smac Mimetics” (priority 2009, published 2013), this text covers IC50 for 31 compounds.

For the first test, the system named is HCC461. The test is described as follows: cell viability assay in HCC461, compound alone. The test is classed as cell-based. The note with it: HCC461, HCC461; Tables 6-9; read-out: IC50 (μM) in cell viability assay in HCC461.
In the case of `CN[C@@H](C)C(=O)N[C@@H](CC#CC#CC[C@H](NC(=O)[C@H](C)NC)C(=O)N1CC=C[C@H]1C(=O)N[C@@H]1CCCc2ccccc21)C(=O)N1CC=C[C@H]1C(=O)N[C@@H]1CCCc2ccccc21` [Compound 89], the IC50 came to 0.414 µM.

Regarding `CN[C@@H](C)C(=O)NC(C(=O)N1C[C@@H](NC(=O)c2cccc(C(=O)NCCCC[C@H](NC(=O)[C@H](C)NC)C(=O)NC(C(=O)N3CCCCC3)C(C)(C)C)c2)C[C@H]1C(=O)N[C@@H]1CCCc2ccccc21)C(C)(C)C` (stereo partly shown) [Compound 151], the IC50 was 0.297 µM.

With `CC[C@H](NC(=O)[C@H](C)NC)C(C)N[C@@H](CNC(=O)c1cccc(C(=O)N[C@H]2C[C@@H](C(=O)N[C@@H]3CCCc4ccccc43)N(C(=O)[C@@H](NC(=O)[C@H](C)NC)C(C)(C)C)C2)c1)C(=O)N[C@H](C)C(C)C` (stereo partly shown) [Compound 137], the IC50 was determined as 6.97 µM.

For the compound `CN[C@@H](C)C(=O)N[C@H](C(=O)N1C[C@@H](NC(=O)c2cccc(C(=O)NCC[C@@H](NC(=O)[C@H](NC(=O)[C@H](N)CO)C(C)C)C(=O)N[C@@H](C)C(C)C)c2)C[C@H]1C(=O)N[C@@H]1CCCc2ccccc21)C(C)(C)C` [Compound 139], the IC50 was 0.849 µM.

As to `CN[C@@H](C)C(=O)N[C@H](C(=O)N1C[C@@H](NC(=O)CC[C@@H](NC(=O)[C@H](NC(=O)[C@@H](C)NC)C(C)(C)C)C(=O)N[C@H]2CCCc3ccccc32)C[C@H]1C(=O)N[C@H](C)C(C)C)C(C)(C)C` [Compound 159], the IC50 is 0.221 µM.

Take `CN[C@@H](C)C(=O)N[C@H](C(=O)N1C[C@@H](NC(=O)CC[C@@H](NC(=O)[C@H](NC(=O)[C@@H](C)NC)C(C)C)C(=O)N[C@@H](C)C(C)C)C[C@H]1C(=O)N[C@@H]1CCCc2ccccc21)C(C)(C)C` [Compound 158]: the IC50 is greater than 30 µM.

Staying with this test, now noted: HCC461, HCC461; Tables 15-18; read-out: IC50 (uM) in cell viability assay in HCC461.
On to `CCC[C@H](NC)C(=O)N[C@H](C(=O)N1CC[C@H](NC(=O)c2cccc(C(=O)N[C@H]3C[C@@H](C(=O)N[C@@H]4CCCc5ccccc54)N(C(=O)[C@@H](NC(C)[C@H](C)NC)C(C)C)C3)c2)C1)C(C)(C)C` (stereo partly shown) [Compound H-4], for which the IC50 stood at 1.69 µM.

With `CN[C@@H](C)C(=O)N[C@H](C(=O)N1CCC[C@H]1C(=O)N[C@H](COCc1cccc(COC[C@@H](NC(=O)[C@@H]2CCCN2C(=O)[C@@H](NC(=O)[C@H](C)NC)C(C)(C)C)C2CCCCC2)c1)c1ccccc1)C(C)(C)C` [Compound P4-18], the IC50 came out at 0.013 µM.

As for `CN[C@@H](C)C(=O)NC(C(=O)N1CCC[C@H]1C(=O)NC1CCCc2ccccc21)c1ccc(C#Cc2ccc(C(NC(=O)[C@H](C)NC)C(=O)N3CCC[C@H]3C(=O)NC3CCCc4ccccc43)cc2)cc1` (stereo partly shown) [Compound P2-1], the IC50 worked out at 0.018 µM.

As to `CN[C@@H](CO)C(=O)N[C@@H](CC#CC#CC[C@H](NC(=O)[C@H](CO)NC)C(=O)N1CCC[C@H]1C(=O)NC1c2ccccc2-c2ccccc21)C(=O)N1CCC[C@H]1C(=O)NC1c2ccccc2-c2ccccc21` [Compound P2-17], the IC50 is 0.134 µM.

As for `CCN[C@@H](C)C(=O)C[C@H](C(=O)N1CCC[C@H]1C(=O)N[C@@H]1CCCc2ccccc21)c1ccc(C#CCO[C@H](C)[C@H](NC(=O)[C@H](C)NC)C(=O)N2CCC[C@H]2C(=O)N[C@@H]2CCCc3ccccc32)cc1` [Compound H-1], the IC50 was 0.0171 µM.

As to `CN[C@@H](C)C(=O)N[C@@H](CCCCNC(=O)c1ccc(C(=O)NCCCC[C@H](NC(=O)[C@H](C)NC)C(=O)N2CCC[C@H]2C(=O)NC(c2ccccc2)c2ccccc2)cc1)C(=O)N1CCC[C@H]1C(=O)NC(c1ccccc1)c1ccccc1` [Compound P2-30], the IC50 is 0.189 µM.

`CN[C@@H](C)C(=O)N[C@H](C(=O)N1CCC[C@H]1C(=O)N[C@H](CNC(=O)c1cc(N)cc(C(=O)NC[C@@H](NC(=O)[C@@H]2CCCN2C(=O)[C@@H](NC(=O)[C@H](C)NC)C(C)(C)C)c2ccccc2)c1)c1ccccc1)C(C)(C)C` [Compound P4-13]: the IC50 was found to be 0.089 µM.

As for `CN[C@@H](C)C(=O)N[C@H](C(=O)N1CCC[C@H]1C(=O)N[C@H](CNC(=O)c1cccc(C(=O)NC[C@@H](NC(=O)[C@@H]2CCCN2C(=O)[C@@H](NC(=O)[C@H](C)NC)C2CCCCC2)C2CCCCC2)c1)C1CCCCC1)C1CCCCC1` [Compound P4-16], the IC50 is 0.13 µM.

For `CN[C@@H](C)C(=O)N[C@@H](COCCCCCCOC[C@H](NC(=O)[C@H](C)NC)C(=O)N1CCCC1C(=O)N[C@@H]1CCCc2ccccc21)C(=O)N1CCCC1C(=O)N[C@@H]1CCCc2ccccc21` (stereo partly shown) [Compound P2-20], the IC50 was 0.043 µM.

Take `CN[C@@H](C)C(=O)N[C@H](C(=O)N1CCC[C@H]1C(=O)N[C@H](C(=O)NCCC#CC#CCCNC(=O)[C@@H](NC(=O)[C@@H]1CCCN1C(=O)[C@@H](NC(=O)[C@H](C)NC)C(C)(C)C)C1CCCCC1)C1CCCCC1)C(C)(C)C` [Compound P4-1]: the IC50 was determined as 0.08 µM.

`CN[C@@H](C)C(=O)N[C@H](C(=O)N1CCC[C@H]1C(=O)N[C@H](COCc1ccc(COC[C@@H](NC(=O)[C@@H]2CCCN2C(=O)[C@@H](NC(=O)[C@H](C)NC)C(C)(C)C)C2CCCCC2)cc1)C1CCCCC1)C(C)(C)C` [Compound P4-17]: the IC50 is 0.015 µM.

As to `CN[C@@H](C)C(=O)N[C@@H](CC#CC#CC[C@H](NC(=O)[C@H](C)NC)C(=O)N1CCC[C@H]1C(=O)NC1c2ccccc2-c2ccccc21)C(=O)N1CCC[C@H]1C(=O)NC1c2ccccc2-c2ccccc21` [Compound P2-5], the IC50 amounted to 0.091 µM.

Take `CN[C@@H](C)C(=O)N[C@@H](CCNC(=O)c1cc(C(=O)NCC[C@H](NC(=O)[C@H](C)NC)C(=O)N2CCC[C@H]2C(=O)N[C@@H]2CCCc3ccccc32)[nH]n1)C(=O)N1CCC[C@H]1C(=O)N[C@@H]1CCCc2ccccc21` [Compound P2-28]: the IC50 stood at 0.163 µM.

Take `CN[C@@H](C)C(=O)N[C@@H](CCCCNC(=O)c1cc(C(=O)NCCCC[C@H](NC(=O)[C@H](C)NC)C(=O)N2CCC[C@H]2C(=O)NC(c2ccccc2)c2ccccc2)[nH]n1)C(=O)N1CCC[C@H]1C(=O)NC(c1ccccc1)c1ccccc1` [Compound P2-31]: the IC50 is 0.268 µM.

Staying with this test, now noted: HCC461, HCC461 cells, compound alone; read-out: IC50 (uM) in cell viability assay in HCC461.
For `CN[C@@H](C)C(=O)N[C@H](C(=O)N1C[C@@H](NC(=O)c2ccc(-c3ccc(C(=O)N[C@H]4C[C@@H](C(=O)NC5CCCc6ccccc65)N(C(=O)[C@@H](NC(=O)[C@H](C)NC)C(C)(C)C)C4)cn3)nc2)CC1C(=O)N[C@@H]1CCCc2ccccc21)C(C)(C)C` (stereo partly shown) [Compound P3-40], the IC50 turned out to be 0.005 µM.

As to `CN[C@@H](C)C(=O)N[C@H](C(=O)N1C[C@@H](NC(=O)c2ccc(C(=O)N[C@H]3C[C@@H](C(=O)NC4c5ccccc5-c5ccccc54)N(C(=O)[C@@H](NC(=O)[C@H](C)NC)C(C)(C)C)C3)cc2)C[C@H]1C(=O)NC1c2ccccc2-c2ccccc21)C(C)(C)C` [Compound P3-2], the concentration for half-maximal inhibition (IC50) amounted to 0.02 µM.

On to `CN[C@@H](C)C(=O)N[C@H](C(=O)N1C[C@@H](NC(=O)c2cccnc2-c2ncccc2C(=O)N[C@H]2C[C@@H](C(=O)NC3CCCc4ccccc43)N(C(=O)[C@@H](NC(=O)[C@H](C)NC)C(C)(C)C)C2)CC1C(=O)N[C@@H]1CCCc2ccccc21)C(C)(C)C` (stereo partly shown) [Compound P3-39], for which the IC50 turned out to be 0.006 µM.

As for `C#CC[C@H](NC(=O)[C@H](C)NC)C(=O)N1C[C@@H](NC(=O)c2ccc(C(=O)N[C@H]3C[C@@H](C(=O)N[C@@H]4CCCc5ccccc54)N(C(=O)[C@H](CC#C)NC(=O)[C@H](C)NC)C3)cc2)C[C@H]1C(=O)N[C@@H]1CCCc2ccccc21` [Compound P3-4], the IC50 worked out at 0.006 µM.

As to `CN[C@@H](C)C(=O)N[C@H](C(=O)N1C[C@@H](NC(=O)c2cccc(C(=O)N[C@H]3C[C@@H](C(=O)N[C@@H]4CCCc5ccccc54)N(C(=O)[C@@H](NC(=O)[C@H](C)NC)C(C)C)C3)c2)C[C@H]1C(=O)N[C@@H]1CCCc2ccccc21)C(C)C` [Compound P3-55], the IC50 is 0.017 µM.

As to `CN[C@@H](C)C(=O)N[C@H](C(=O)N1C[C@@H](NC(=O)c2cc(N)cc(C(=O)N[C@H]3C[C@@H](C(=O)N[C@H](C)c4ccccc4)N(C(=O)[C@@H](NC(=O)[C@H](C)NC)C(C)(C)C)C3)c2)C[C@H]1C(=O)N[C@H](C)c1ccccc1)C(C)(C)C` [Compound P3-52], the IC50 was 0.044 µM.

For the compound `CN[C@@H](C)C(=O)N[C@H]1CC#CC#CC[C@H](NC(=O)[C@H](C)NC)C(C)N2C[C@H](C[C@H]2C(=O)N[C@@H]2CCCc3ccccc32)NC(=O)c2ccc(cc2)C(=O)N[C@H]2C[C@@H](C(=O)N[C@@H]3CCCc4ccccc43)N(C2)C1C` (stereo partly shown) [Compound P3-8], the IC50 was 0.081 µM.

The test is the same for the next values; noted with them: HCC461; Tables 6-9; read-out: IC50 (μM) in cell viability assay in HCC461.
As to `CN[C@@H](C)C(=O)N[C@H](C(=O)N1C[C@@H](NC(=O)c2cccc(C(=O)NCCCC[C@H](NC(=O)[C@@H](NC(=O)[C@H](CO)NC)C(C)(C)C)C(=O)N[C@@H](C)C(C)C)c2)CC1C(=O)N[C@@H]1CCc2ccccc2C1)C(C)(C)C` (stereo partly shown) [Compound 165], the IC50 was greater than 30 µM.

As to `C[C@H](NC(=O)OCc1ccc([N+](=O)[O-])cc1)C(=O)NC(C(=O)N1C[C@@H](NC(=O)c2cccc(C(=O)N[C@H]3C[C@@H](C(=O)N[C@@H]4CCCc5ccccc54)N(C(=O)[C@@H](NC(=O)[C@H](C)NC(=O)OCc4ccc([N+](=O)[O-])cc4)C(C)(C)C)C3)c2)CC1C(=O)N[C@@H]1CCCc2ccccc21)C(C)(C)C` (stereo partly shown) [Compound 111], the IC50 is greater than 30 µM.

The test is the same for the next values; noted with them: HCC461; Tables 15-18; read-out: IC50 (uM) in cell viability assay in HCC461.
As to `CN[C@@H](C)C(=O)N[C@H](C(=O)N1CCC[C@H]1C(=O)N[C@H](CNC(=O)C1CCCC(C(=O)NC[C@@H](NC(=O)[C@@H]2CCCN2C(=O)[C@@H](NC(=O)[C@H](C)NC)C(C)(C)C)C2CCCCC2)C1)C1CCCCC1)C(C)(C)C` (single isomer, unassigned) [Compound P4-5], the IC50 was determined as 0.011 µM.

Still in this test, the particulars now being: HCC461 cells, compound alone; read-out: IC50 (uM) in cell viability assay in HCC461.
For `CN[C@@H](C)C(=O)N[C@H](C(=O)N1C[C@@H](NC(=O)C2CCCC(C(=O)N[C@H]3C[C@@H](C(=O)NC4CCCc5ccccc54)N(C(=O)[C@@H](NC(=O)[C@H](C)NC)C(C)(C)C)C3)C2)CC1C(=O)N[C@@H]1CCCc2ccccc21)C(C)(C)C` (stereo partly shown) [Compound P3-28], the IC50 was found to be 0.019 µM.
